Results: patent publication US10988429B2, “Quinochalcone compound and uses thereof for treating cancer or inflammation” (CHON THERAPEUTICS INC., LTD., priority 2017, dated 2021)

What was measured:
Kyn transporter PAT4 = assay: Expression of Kyn transporter PAT4 in activated human CD8+ T cells, quantitative PCR (Example 10); type: cell-based; conditions: activated CD8+ T cells of breast cancer patients; Kyn 200 μM with or without HB-48 10 μM; 48 hours
Description: (§1) Mononuclear cells were obtained from peripheral whole blood of patients with breast cancer using Ficoll. CD8+ T cells were sorted by magnetic beads and plated on 96-well U-shaped bottom plates (100,000 cells/well). T cells were activated by anti-CD3/CD28 magnetic beads. Media was RPMI-1640 plus 10 ng/mL human IL-2. Dosing by the following groups: • Control group 1 (PBS): medium and PBS. • Experimental group 2 (Kyn): Kyn 200 μM was added to the medium. • Experimental group 3 (Kyn+DMF): Kyn 200 μM and DMF 10 μM were added to the medium simultaneously. • Experimental group 4 (Kyn+HB-48): Kyn 200 μM and HB-48 10 μM were added to the medium simultaneously.
Each group of T cells RNA was extracted after 48 hours, and the expression of PAT4 was detected by fluorescence quantitative PCR.

mice melanoma B16 cells = assay: B16 tumor-bearing C57 mice, HB-48 versus DMF (Example 3); type: in vivo, mouse; conditions: intratumor injection 5 mg/kg every two days for 10 days
Description: Establishment of tumor-bearing mice model: 1×10^5 mice melanoma B16 cells were transplanted into 4˜6 weeks old C57BL/C mice (C57 mice). The weight of each mouse was about 20 g. Tumors were visible on day 7. Mice were treated as follows when the tumor sizes were 5 mm×5 mm. • Control group 1 (PBS): Intratumor injection with PBS. • Experiment group 2 (HB-48): Intratumor injection with HB-48 at 5 mg/kg every two days for 10 days. • Experiment group 3 (DMF): Intratumor injection with DMF with 5 mg/kg every two days for 10 days.
Tumor sizes were recorded daily.

[1] = test system: A375, B16, MP-1, MCF-7, HL-60, K562 and ALL-1 cells; assay: 3D gel culture, clone size, HB-48 alone (Example 1); type: cell-based, human; mouse (B16); conditions: 3D culture; HB-48 1, 5, 10, 20 or 50 μmol/ml; 48 and 96 hours
Description: 3D gel technology involves culturing cells in a gel-like matrix. Studies in our lab have shown that cancer cells grown using 3D technology behave more like cancers found in vivo, as cancer cells grown using 3D technology display strong proliferative ability, higher drug resistance, stronger tumorigenicity and greater far-end invasion transfer ability than cancer cells cultured using traditional methods. The following treatments were added to 3D cultures of viable cells. • Control group 1 (Medium): RPMI-1640 medium supplemented with glutamine. • Experiment group1 (HB-48): HB-48 was added to cells at a final concentration of 1 μmol/ml, 5 μmol/ml, 10 μmol/ml, 20 μmol/ml, or 50 μmol/ml in Medium.
Dosing drugs was recorded as day 0. Clone size was determined by taking photographic images 48 and 96 hours after dosing. ImageJ software was used to analyze the size of the clones. The clone sizes in different groups were normalized to the control group on the second day.

[2] = test system: A375, B16, MP-1, MCF-7, HL-60, K562 and ALL-1 cells; assay: 3D gel culture, number of colonies, HB-48 alone (Example 2); type: cell-based, human; mouse (B16); conditions: 3D culture; HB-48 1, 5, 10, 20 or 50 μmol/ml
Description: The following treatments were added to cultures of viable cells. • Control group 1 (Medium): RPMI-1640 medium supplemented with glutamine. • Experiment group1 (HB-48): HB-48 was added to cells at a final concentration of 1 μmol/ml, 5 μmol/ml, 10 μmol/ml, 20 μmol/ml, or 50 μmol/ml in Medium.
The day of drug treatment was recorded as day 0. […] The size of colonies in group control on day 2 is served as control.

[3] = test system: PD-1 expression in mouse CD8+ T cells; assay: PD-1 expression on activated mouse CD8+ T cells, flow cytometry (Example 8); type: cell-based; conditions: mouse spleen CD8+ T cells activated by anti-CD3/CD28 beads; Kyn 200 μM and HB-48 10 μM; 48 hours
Description: Mouse spleen CD8+ T cells were sorted by magnetic beads and seeded in U-bottom 96-well plates (100,000/well) and T cells were activated by anti-CD3/CD28 magnetic beads. The medium was RPMI-1640 plus 10 ng/Mouse IL-2 and […] β-mercaptoethanol. Treatment and dosing is described below: • Control group 1 (PBS): Medium and PBS; • Experimental group 2 (Kyn): Kyn 200 μM was added to the Medium. • Experimental group 3 (Kyn+DMF): Kyn 200 μM and DMF 10 μM were added to the Medium simultaneously. • Experimental group 4 (Kyn+HB-48): Kyn 200 μM and HB-48 10 μM were added to the Medium simultaneously.
(§2) PD-1 expression levels were measured by flow cytometry in each group of T cells at 48 hours.

[4] = test system: OVA-B16 cells co-cultured with OT-1 CD8+ T cells; assay: Apoptosis of OVA-B16 co-cultured with pretreated OT-1 CD8+ T cells (Example 8); type: cell-based, mouse; conditions: T cells pretreated with HB-48 10 μM for 24 hours; co-culture ratio 1 to 10; 4 hours
Description: Spleen CD8+ T cells of OT-1 mice were obtained by magnetic bead sorting, seeded in a U-shaped bottom 96-well plate (100,000 cells/well) and treated as follows. • Control group 1 (PBS): medium plus PBS. • Experimental group 2 (DMF): DMF 10 μM was added to the medium. • Experimental group 3 (HB-48): HB-48 10 μM was added to the medium.
After pretreatment of T cells for 24 hours, 3D cultured OVA-B16 was co-cultured with OT-1 CD8+ T cells at a ratio of 1 to 10, and the apoptosis of OVA-B16 cells was detected by flow cytometry after 4 hours.

OVA-B16 melanoma cells = assay: OVA-B16 tumor-bearing C57BL/6 mice, adoptive CD8+ T cells and HB-48 (Example 9); type: in vivo, mouse; conditions: HB-48 intratumoral 5 mg/kg every two days, 10 times, OT-1 T cells 4×10^6 i.v. every 5 days, 3 times
Description: Tumor-bearing mice were constructed: OVA-B16 melanoma cells were seeded on C57BL/6 mice (inoculation amount of 1×10^5 cells) for 4-6 weeks. […] When the tumor size reached 5 mm×5 mm, tumor-bearing mice were treated as follows: • Control group 1 (PBS): Intratumoral injection of PBS only. • Experimental group 2 (CD8+ T cells): Tumor bearing mice were intravenously adoptively transferred with 4×10^6 OVA-specific CD8^+ T-cells (OT-1 T-cells) once every 5 days for 3 times. • Experimental group 3 (DMF): Tumor-bearing mice were intratumorally injected with DMF every two days, a total of 10 times, each dose of 5 mg/kg. • Experimental group 4 (HB-48): Tumor-bearing mice were intratumorally injected with HB-48 every two days, a total of 10 times, each dose of 5 mg/kg. • Experimental group 5 (CD8+ T and DMF): Tumor-bearing mice were intravenously transferred with OT-1 T cells every 5 days for 3 times, and intratumorally injected with DMF every two days for 10 times at the same time. • Experimental group 6 (CD8+ T and HB-48): Tumor-bearing mice were intravenously transfered with OT-1 T cells every 5 days for 3 times, and intratumorally injected with HB-48 every two days for 10 times at the same time.
Tumor length and width were measured daily, and tumor volume changes were calculated.

[5] = test system: PD-1 expression in human peripheral blood CD8+ T cells; assay: PD-1 expression in peripheral blood CD8+ T cells of breast cancer patients (Example 10); type: cell-based; conditions: resting CD8+ T cells of breast cancer patients; HB-48 10 μM; 48 hours; compared with DMF 10 μM
Description: Mononuclear cells were obtained from peripheral blood of breast cancer patients using Ficoll. CD8+ T cells were sorted by magnetic beads and plated on U-bottom 96-well plates (100,000 cells/well) supplemented with RPMI-1640 supplemented with 10 ng/mL human IL-2. Dosing by the following groups: • Control group 1 (PBS): medium plus PBS. • Experimental group 2 (DMF): DMF 10 μM was added to the medium. • Experimental group 3 (HB-48): HB-48 10 μM was added to the medium.
as §2

[6] = test system: PD-1 expression in human activated CD8+ T cells; assay: Kyn-mediated PD-1 upregulation in activated peripheral blood CD8+ T cells of breast cancer patients (Example 10); type: cell-based; conditions: Kyn 200 μM and HB-48 10 μM, 48 hours, compared with DMF 10 μM
Description: as §1, §2

[7] = test system: inflammatory factors of macrophages derived from murine bone marrow; assay: Expression of inflammatory factors in bone marrow-derived macrophages, qPCR (Example 13); type: cell-based, mouse; conditions: HB-48 10 μM, 48 h
Description: Bone marrow-derived macrophages were obtained from mouse bone marrow cells, RPMI-1640 plus mouse M-CSF 20 ng/mL for 5 days and were treated as follows: • Control group 1 (PBS): medium plus PBS; • Experimental group 2 (HB-48): medium plus HB-48 at a dose of 10 μM. After 48 h, macrophages were collected and the expression of IFN-γ, TNF-α, IL-12p35, IL-12p40 and IL-2 was detected by qPCR in both groups.

Row | SMILES | expression of PAT4 in peripheral blood CD8+ T cells (Kyn transporter PAT4) | tumor growth (tumor volume) (mice melanoma B16 cells) | growth (relative clone size) of solid tumor and leukemia cells [1] | colony numbers of solid tumor cells and leukemia cells [2] | Kyn-mediated upregulation of PD-1 in CD8+ T cells [3] | percentage of apoptosis of OVA-B16 tumor cells [4] | therapeutic effect (tumor volume) (OVA-B16 melanoma cells) | PD-1 expression in peripheral blood CD8+ T cells [5] | Kyn-mediated upregulation of PD-1 in peripheral blood CD8+ T cells [6] | expression of IFN-γ [7] | expression of IL-1β [7] | expression of IL-12p35 [7] | expression of IL-12p40 [7] | expression of TNF-α [7]
1 | Nc1ccccc1C(=O)CC(N)C(=O)O (stereo not shown) [Kyn, Kynurenine, reference compound] | can up-regulate the expression of its transporter PAT4 | – | – | – | – | – | – | – | – | – | – | – | – | –
2 | COc1ccc(-c2cc(=O)c3ccccc3o2)cc1OC [DMF, 3′,4′-Dimethoxyflavone, reference compound] | – | could inhibit the tumor growth | – | – | – | – | – | – | – | – | – | – | – | –
3 | COCOC1=CC(=O)/C(=C(O)/C=C/c2ccc(OCOC)cc2)C(=O)C1(CC=C(C)C)CC=C(C)C [HB-48, 2-[1-hydroxy-3-(4-methoxymethoxyphenyl)allylidene]-5-methoxymethoxy-6,6-diprenylcyclohex-4-ene-1,3-dione] | can down-regulate the expression of PAT4 | shows a significant enhanced anticancer effect | significantly inhibited the growth of solid tumor and leukemia cells in a concentration-dependent manner | effectively reduced the colony numbers of solid tumor cells and leukemia cells in a dose dependent manner | inhibited Kyn-mediated upregulation of PD-1 in CD8+ T cells more effectively than DMF | significantly increased | had a certain therapeutic effect | more effectively down-regulated PD-1 expression | inhibited Kyn-mediated upregulation of PD-1 | significantly reduced | significantly reduced | significantly reduced | significantly reduced | significantly reduced
